According to ChEMBL document CHEMBL1121871, “Azaprostaglandin analogues. Synthesis and biological properties of 11-azaprostaglandin derivatives” (1981):
Calls of active or inactive are those of the source. No cut-off for these calls is given here.

Legend:
Cavia porcellus = species on record: Cavia porcellus; assay: Tested for activity of the 250 ng/ml compound to inhibit ADP-induced aggregation in guinea pig platelet rich plasma; Inactive; type: functional, organism-based
Rattus norvegicus [1] = species on record: Rattus norvegicus; assay: Compound was tested for its activity to stimulate rat uterus at concentration of 2-10 e-6 g/mL; Showed very little stimulation; type: functional, organism-based
Rattus norvegicus [2] = species on record: Rattus norvegicus; assay: Tested for enhancement against rythemice contractions and tone of rat portal vein at concentrations ranging from 2*10e-6-1*10e-5 g/mL; Active; type: functional, organism-based
[3] = Compound was evaluated for the potency ratio in anesthetized rats; type: functional

CCCCC[C@@H](O)/C=C/[C@H]1NC(=O)C[C@@H]1CCCCCCC(=O)O
inhibition (Cavia porcellus): inactive
Activity (Rattus norvegicus [1]): very little stimulation
Enhancement (Rattus norvegicus [2]): Active
Potency Ratio [3]: 0.13
